The test system of one data set is T. cruzi epimastigotes. Description: Recovery of epimastigotes after 24 h treatment (residual effect), Neubauer chamber counting. Format: cell-based, Trypanosoma cruzi. To be noted: for reduction in the replication rate / amount of parasites after treatment: epimastigotes; for reduction in the replication rate: at 24 h after treatment; for amount of parasites after treatment: 24 h treatment. As to the method: To determine whether the parasites could recover after treatment with the pure compounds, T. cruzi epimastigotes were incubated with compounds 1–3 (0.1, 1, and 10 μg/mL) for 24 h. Parasites were then centrifuged at 3000 rpm for 10 min, resuspended in fresh medium, and incubated for 2 additional days, counting the number of parasite in a Neubauer chamber on a daily basis.

Data set [1] deals with T. cruzi epimastigotes (RA strain). Description: [3H] thymidine uptake assay, growth inhibition of T. cruzi epimastigotes. Format: cell-based. To be noted: Trypanosoma cruzi, 72 h of incubation. As to the method:
T. cruzi epimastigotes (RA strain) were grown in liver infusion tryptose medium (LIT) supplemented with 10% fetal bovine serum (Natocor). Cultures were routinely maintained by weekly passages at 28°C. T. cruzi trypomastigotes were routinely maintained by infecting 21-day-old male CF1 mice. T. cruzi amastigotes were obtained by infecting J774 cells with bloodstream trypomastigotes.
S. sonchifolius OE and fractions F 1A–F 5B were tested for trypanocidal activity against T. cruzi epimastigotes, at final concentrations of 10 μg/mL and 100 μg/mL, by a [^3H] thymidine uptake assay as previously described. Compounds 1, 2, and 3 were tested at final concentrations ranging from 0.01 μg/mL to 50 μg/mL. Stock solutions of the samples were prepared in ethanol : water (1 : 1). Epimastigotes in exponential growth phase were adjusted to 1.5 × 10^6 parasites/mL and seeded on 96-well plates in the presence of the different concentrations of OE, fractions, or compounds. Parasites were cultured in triplicate for 72 h. Control parasites were cultured in absence or presence of benznidazole (20 μM; Roche-Rio de Janeiro, Brazil). Percentage inhibition was calculated as 100 − {[(cpm of treated parasites)/(cpm of untreated parasites)] × 100}. The compound concentration at which the parasite growth was inhibited by 50% (inhibitory concentration 50, IC50) was determined after 72 h.

The nature of the next data set: MTT cytotoxicity assay. Type of data set: cell-based. To be noted: African green monkey, Vero cells. As to the method:
The cytotoxic effect of compounds 1, 2, and 3 on Vero cells was evaluated by using the MTT tetrazolium salt (3-(4,5-dimethylthiazol-2-yl)-2,5-diphenyltetrazolium bromide) (Sigma) colorimetric assay. Cells (5 × 10^4 cells/well) were seeded at a final volume of 150 μL in a flat-bottom 96-well microplate and cultured at 37°C in a 5% CO2 atmosphere in the absence or presence of increasing concentrations of the compounds (1–50 μg/mL). After 24 h, MTT was added at a final concentration of 1.5 mg/mL and plates were incubated for 2 h at 37°C. The purple formazan crystals were completely dissolved by adding 150 μL of ethanol, and the absorbance was detected at 570 nm in a microplate reader. Results were calculated as the ratio between optical density in the presence and absence of the compound multiplied by 100. The 50% cytotoxic concentration (CC50) was calculated for each compound. All experiments were made in duplicate.

The next data set deals with T. cruzi amastigotes. As to the kind of experiment: Intracellular amastigotes in J774 macrophages, β-galactosidase/CPRG assay. Type of data set: cell-based, Trypanosoma cruzi. The settings on record: for selectivity index (SI): CC50 Vero cells divided by IC50 T. cruzi amastigotes; for IC50: Trypanosoma cruzi, intracellular amastigotes in J774 macrophages, 48 h after addition. As to the method: To evaluate the effect of compounds 1–3 on intracellular forms of T. cruzi, 96-well plates were seeded with J774 murine macrophages at 5 × 10^3 per well in 100 μL of culture medium and incubated for 2 h at 37°C in a 5% CO2 atmosphere. Cells were infected with transfected blood trypomastigotes expressing β-galactosidase at a parasite : cell ratio of 10 : 1. After 2 h of coculture, plates were washed twice with PBS to remove free parasites and compounds 1–3 were added at 0.1–50 μg/mL per well in 150 μL of fresh complete RPMI medium without phenol red (Gibco, Rockville, MD). Controls included infected nontreated cells (100% infection control) and uninfected cells (0% infection control). The assay was developed 48 h later by addition of chlorophenol red-β-d-galactopyranoside (100 μM CPRG) and 1% Nonidet P40. Plates were incubated for 4–6 h at 37°C. Wells with galactosidase activity turned the media from yellow to red, and this reaction was quantified at 590 nm in a microplate reader (Bio-Rad Laboratories, Hercules, CA). Percentage inhibition was calculated as 100 − {[(absorbance of treated infected cells)/(absorbance of untreated infected cells)] × 100} and the IC50 value calculated.
The selectivity index (SI) of each compound was calculated as the CC50 obtained with Vero cells divided by the IC50 obtained against T. cruzi amastigotes.

Another data set concerns T. cruzi trypomastigotes. As to the kind of experiment: Trypanocidal effect on bloodstream trypomastigotes, counting of remaining live parasites. The settings on record: 24 h; for IC50: Trypanosoma cruzi. Format: cell-based, Trypanosoma cruzi. As to the method: The trypanocidal effect of compounds 1, 2, and 3 was also tested on bloodstream trypomastigotes as previously described. Briefly, mouse blood containing trypomastigotes was adjusted to a concentration of 1.5 × 10^6 parasite/mL and seeded (150 μL/well) by duplicate into a 96-well microplate, in the presence of each compound (1 to 50 μg/mL, final concentration). Plates were incubated for 24 h, and the remaining live parasites were counted in a haemocytometer.

[2] abbreviates: 10 μg/mL for 24 h, then 2 days in fresh medium.

Several values for one entry are separate records, joined by “and”; a condition that tells them apart may be missing. Equal values may be shown once. Entries after “also recorded” stand apart in the source; their conditions may differ.

Regarding `C=C1C(=O)O[C@H]2[C@H]1[C@H](OC(=O)[C@@]1(C)O[C@H]1C)[C@@H](OC(C)=O)/C(C(=O)OC)=C\CC[C@@]1(C)O[C@H]21` [enhydrin, 4α,5β-epoxy-8β-(2′S,3′S)-epoxyangeloyloxy-9α-acetyloxy-1(10)E,11(13)-germacradien-12,6α-olide-14-oic-acid methyl ester], the “recovery of epimastigote replication after removal of compound” value (“recovery of epimastigote replication” below) in the data set with T. cruzi epimastigotes (setting [2]) is given as “not able to recover their replication rate; also recorded: no recuperation of the epimastigotes was observed; also recorded: not able to recover their initial replication rates”. Besides, in the data set with T. cruzi epimastigotes (1 μg/mL), the “reduction in the replication rate” value is about 50%. Besides, in the data set on T. cruzi epimastigotes (10 μg/mL), the “amount of parasites after treatment” value is “drastic reduction in the amount of parasites”. Besides, the IC50 was 840 nM and 0.39 µg/mL in data set [1]; 5.17 µM and 2.4 µg/mL in the data set with T. cruzi amastigotes; 33.4 µM and 15.5 µg/mL in the data set on T. cruzi trypomastigotes. Moreover, the CC50 at 24 h in the data set “MTT cytotoxicity assay” is 46.5 µM and 21.6 µg/mL. The “selectivity index (SI)” value in the data set on T. cruzi amastigotes came out at 9.

In the case of `C=C1C(=O)O[C@@H]2/C=C(\C)CC/C=C(/C(=O)OC)[C@H](OC(C)=O)[C@@H](OC(=O)/C(C)=C\C)[C@@H]12` [polymatin B, 8β-angeloyloxi-9α-acetyloxi-1(10)E,4E,11(13)-germacratrien-12,6α-olide-14-oic acid methyl ester], the “recovery of epimastigote replication” value with T. cruzi epimastigotes (0.1 μg/mL for 24 h, then fresh medium) was “recovered their replication rates at values similar to the control parasites”. In addition, the “reduction in the replication rate” value with T. cruzi epimastigotes (10 μg/mL) is about 50%. Also, the IC50 in data set [1] was 4.9 µM and 2.12 µg/mL. Besides, the CC50 at 24 h in the data set “MTT cytotoxicity assay” was 147 µM and 63.7 µg/mL. Further, in the data set on T. cruzi amastigotes, the “selectivity index (SI)” value is on record as 16.3; the IC50 was 9.02 µM and 3.9 µg/mL. The activity against trypomastigotes result in the data set on T. cruzi trypomastigotes (1 to 50 μg/mL) is “not active”.

As for `C=C1C(=O)O[C@@H]2/C=C(\C)CC/C=C(/C(=O)OC)[C@H](OC(C)=O)[C@@H](OC(=O)[C@]3(C)O[C@@H]3C)[C@@H]12` [uvedalin, 8β-(2′S,3′S)-epoxyangeloyloxy-9α-acetyloxy-1(10)E,4E,11(13)-germacratrien-12,6α-olide-14-oic acid methyl ester], the “recovery of epimastigote replication” value in the data set with T. cruzi epimastigotes (setting [2]) was “not able to recover their replication rate; also recorded: no recuperation of the epimastigotes was observed; also recorded: not able to recover their initial replication rates”. In addition, in the data set on T. cruzi epimastigotes (1 μg/mL), the “reduction in the replication rate” value is about 50%. Also, the “amount of parasites after treatment” value in the data set on T. cruzi epimastigotes (10 μg/mL) is on record as “drastic reduction in the amount of parasites”. Besides, the IC50 was 1.09 µM and 0.49 µg/mL in data set [1]; 3.34 µM and 1.5 µg/mL in the data set with T. cruzi amastigotes; 25 µM and 11.2 µg/mL in the data set on T. cruzi trypomastigotes. For the same molecule, the CC50 at 24 h in “MTT cytotoxicity assay” was 46.8 µM and 21 µg/mL. Also, the “selectivity index (SI)” value in the data set with T. cruzi amastigotes is 14.

The IC50 is the midpoint of a concentration-inhibition curve. Low values mean greater potency, high ones weaker potency. A word on the CC50: it is the concentration that lowers cell viability or growth by half. Read a low CC50 as harm at low concentration.

(Values after PMC3690263, “Trypanocidal Activity of Smallanthus sonchifolius: Identification of Active Sesquiterpene Lactones by Bioassay-Guided Fractionation” (Evidence-based Complementary and Alternative Medicine : eCAM, 2013).)
